The subject of test [1] is mice (itch, scratching bouts). Description: Mouse cheek model, scratching bouts. In kind it is in vivo. To be noted: intradermal injection into the cheek, 10 μl. Here is the method: The mouse cheek model was used to evaluate scratching behavior in Mrgpr cluster Δ−/− and NK1−/− mice. Mice used for behavioral studies were 2 to 3 months old, 20-30 g. Mice were habituated for 30 minutes/day for 3 days prior and for 15 minutes on the day of the study. 10 μl of each compound were delivered by a 31G needle to the cheek. The mice were not shaved prior to injections to avoid irritation. All experiments were performed at consistent times during the day (9:00 am to 2:00 pm) and under the same conditions and in groups of at least 7 mice. The mice were videotaped in a soundproof environment minimize distraction. Recordings were scored for the number of scratching bouts that occur over 1 minute intervals during 25 minute observation periods and the investigator was not aware of the group allocation during scoring the study and behavioral analysis. A scratching bout was initiated by lifting of the hind paw to the area of injection, and ended by returning of the hind paw to the floor or to the mouth. […]
For behavioral studies, average numbers of scratching bouts were compared across groups using one-way ANOVA. Pair-wise comparisons were performed using student t test after correcting p values for multiple comparisons using the Bonferroni procedure. For DRG studies and mast cell degranulation studies, unpaired student t-test was used. Differences were considered to be statistically significant for P<0.05. Data analysis was performed using PRISM 6.

For test [2], the target named is T1, MrgA3 (mouse MrgprA3) (Mus musculus, UniProt Q91WW3).
T1 construct: expressed in transfected cells; host or cells: HeLa cells, pcDNA3.1(-)
T1 sequence (Q91WW3 1-302): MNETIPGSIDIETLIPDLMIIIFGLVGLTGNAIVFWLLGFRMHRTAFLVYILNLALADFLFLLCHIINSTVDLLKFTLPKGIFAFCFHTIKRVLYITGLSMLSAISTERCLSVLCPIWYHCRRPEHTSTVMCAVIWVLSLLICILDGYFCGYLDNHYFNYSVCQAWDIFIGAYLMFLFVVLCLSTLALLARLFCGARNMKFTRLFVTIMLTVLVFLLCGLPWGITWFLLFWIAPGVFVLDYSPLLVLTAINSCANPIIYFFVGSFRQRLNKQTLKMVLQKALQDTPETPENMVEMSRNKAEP
Description: Calcium imaging of cells transfected with the GPCR (Table 1). The test is classed as cell-based. To be noted: chloroquine 100 μM (FIG. 7c). As for the experimental part: (§1) Human NK1 cDNA was obtained from LIFE Technologies, PCR cloned with Xho I-Hind III ends and cloned into pcDNA3.1(−). Mouse NK2 and NK3 expression-ready vectors were obtained from […] (Piscataway, N.J.). All other Mrgprs (human MRGPRX1, human MRGPRX2, human MRGPRX3, human MRGPRX4, mouse MrgprA2a, mouse MrgprA2b, mouse MrgprA3, mouse MrgprA4, mouse MrgprA9, mouse MrgprA10, mouse MrgprB4 and mouse MrgprB5) were cloned by PCR from genomic DNAs and inserted into pcDNA3.1 (−).
(§2) 10 μg of expression vector (human MRGPRX2, mouse MrgprA1 or NK1) and 10 μl of LIPOFECTAMINE 2000 transfection reagent were diluted into 0.5 ml of DMEM and separately left at room temperature (RT) for 5 min. They were then mixed and incubated at RT for 20 minutes prior to being added to HeLa cells. HeLa cells were grown to confluence, trypsinized and 1×10^6 cells were pelleted in a 15 ml tube by centrifugation at 1000 rpm for 5 minutes. The DMEM-LIPOFECTAMINE 2000-DNA mixture (1 ml) was then added to the cell pellet, suspended and incubated at RT for 5 minutes. 2 ml of complete DMEM with 10% FBS without antibiotics were added to the tube, mixed by inverting the tube, plated into a 96-well glass bottom plate at 50,000 cells/well, and placed in a 37° C. CO2 incubator for 3 hours. HeLa cells transfected with salmon sperm DNA were plated as a control. The medium was changed after 3 hours and left in the incubator. 24 hours after transfection, the medium in the wells was removed and 100 μl of complete DMEM containing 2 μM of FURA-2 were added to each well and left at room temperature in the dark for 1 hr.
(§3) Calcium imaging was performed immediately after loading cells with Fura-2, using a ZEISS Axiovert 200M microscope platform equipped with a flipping filter wheel for ratiometric imaging. Axiovision software, version 4.6 was used for calcium image analysis of the cells excited at 340 nm and 380 nm. Agonists were added at 15 seconds after the start of the excitation procedure. Antagonists were added five minutes before imaging with the agonists. Images were taken every 5 seconds, including at zero time, during a 90 second period or longer if required. The software later analyzed all images taken during each excitation period. Ratiometric changes were measured in 10-20 cells in each individual experiment. An average of the fluorescence of the cells in each image was calculated and plotted against time in seconds.

In test [3] the target is T2, MrgX1 (human MRGPRX1) (Homo sapiens, UniProt Q96LB2).
T2 construct: expressed in transfected cells; host or cells: HeLa cells, pcDNA3.1(-)
T2 sequence (Q96LB2 whole entry): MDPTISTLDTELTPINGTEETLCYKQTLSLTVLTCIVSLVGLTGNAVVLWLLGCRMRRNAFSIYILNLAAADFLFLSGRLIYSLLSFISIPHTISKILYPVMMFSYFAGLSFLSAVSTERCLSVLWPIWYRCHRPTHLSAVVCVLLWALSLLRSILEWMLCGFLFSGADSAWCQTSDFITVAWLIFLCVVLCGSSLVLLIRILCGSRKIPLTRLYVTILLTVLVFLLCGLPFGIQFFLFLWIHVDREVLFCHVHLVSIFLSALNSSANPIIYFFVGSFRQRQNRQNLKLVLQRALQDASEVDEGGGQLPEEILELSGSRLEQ
The test is described as above. The test is classed as cell-based. As to conditions: SP 10 μM (FIG. 9); chloroquine 100 μM (FIG. 7c). Here is the method:
as §1, §2, §3

Ends that are not written are not given here.

“PAMP: PAMP peptide of the behavioral studies, length not stated (ARLDVASEFRKKWNKWALSR; ends and bridges not checked; UniProt P35318 22-41, looked up)”: in test [1], the “provocation of itch (scratching bouts) by the injected substance, WT mice” value is reported as “don't cause itch”.

As for `CCN(CC)CCCC(C)Nc1ccnc2cc(Cl)ccc12` (stereo not shown) [Chloroquine, chloroquine], the “activation of mouse MrgprA3 by the substance (in words)” value in test [2] is reported as “activates”. Further, the “activation of human MRGPRX1 by the substance (in words)” value in test [3] is recorded as “activates”.

As for “LL-37: antimicrobial peptide that activates MRGPRX2”, the “provocation of itch (scratching bouts) by the injected substance, WT mice” value in test [1] was “don't cause itch”.

Source of the values: US10426815B2, “Prevention and treatment of itch with an MRGPR antagonist” (THE GENERAL HOSPITAL CORPORATION, priority 2015, dated 2019).
